According to patent publication US20240398784A1, “C-LINKED ISOQUINOLINE AMIDES AS LRRK2 INHIBITORS, PHARMACEUTICAL COMPOSITIONS, AND USES THEREOF” (Merck Sharp & Dohme LLC, priority 2021, published 2024):

The compounds below were run against LRRK2 G2019S (Homo sapiens, UniProt Q5S007, G2019S) (assay: LRRK2 G2019S Km ATP LanthaScreen assay). Conditions: read-out: LRRK2 pIC50 (converted).
Assay type: biochemical
Protocol: Unless otherwise noted, all reactions are magnetically stirred. Unless otherwise noted, when diethyl ether is used in the experiments described below, it is Fisher ACS certified material and is stabilized with BHT. Unless otherwise noted, “concentrated” and/or “solvent removed under reduced pressure” means evaporating the solvent from a solution or mixture using a rotary evaporator or vacuum pump. Unless otherwise noted, flash chromatography is carried out on a Teledyne Isco (Lincoln, NE), Analogix (Burlington, WI), or Biotage (Stockholm, SWE) automated chromatography system using a commercially available cartridge as the column. Columns may be purchased from Teledyne Isco, Analogix, Biotage, Varian (Palo Alto, CA), or Supelco (Bellefonte, PA) and are usually filled with silica gel as the stationary phase. Reverse phase prep-HPLC conditions, where used, can be found at the end of each experimental section. Aqueous solutions were concentrated on a Genevac (Ipswich, ENG) or by freeze-drying/lyophilization.

LRRK2 G2019S, sequence (Q5S007 whole entry G2019S): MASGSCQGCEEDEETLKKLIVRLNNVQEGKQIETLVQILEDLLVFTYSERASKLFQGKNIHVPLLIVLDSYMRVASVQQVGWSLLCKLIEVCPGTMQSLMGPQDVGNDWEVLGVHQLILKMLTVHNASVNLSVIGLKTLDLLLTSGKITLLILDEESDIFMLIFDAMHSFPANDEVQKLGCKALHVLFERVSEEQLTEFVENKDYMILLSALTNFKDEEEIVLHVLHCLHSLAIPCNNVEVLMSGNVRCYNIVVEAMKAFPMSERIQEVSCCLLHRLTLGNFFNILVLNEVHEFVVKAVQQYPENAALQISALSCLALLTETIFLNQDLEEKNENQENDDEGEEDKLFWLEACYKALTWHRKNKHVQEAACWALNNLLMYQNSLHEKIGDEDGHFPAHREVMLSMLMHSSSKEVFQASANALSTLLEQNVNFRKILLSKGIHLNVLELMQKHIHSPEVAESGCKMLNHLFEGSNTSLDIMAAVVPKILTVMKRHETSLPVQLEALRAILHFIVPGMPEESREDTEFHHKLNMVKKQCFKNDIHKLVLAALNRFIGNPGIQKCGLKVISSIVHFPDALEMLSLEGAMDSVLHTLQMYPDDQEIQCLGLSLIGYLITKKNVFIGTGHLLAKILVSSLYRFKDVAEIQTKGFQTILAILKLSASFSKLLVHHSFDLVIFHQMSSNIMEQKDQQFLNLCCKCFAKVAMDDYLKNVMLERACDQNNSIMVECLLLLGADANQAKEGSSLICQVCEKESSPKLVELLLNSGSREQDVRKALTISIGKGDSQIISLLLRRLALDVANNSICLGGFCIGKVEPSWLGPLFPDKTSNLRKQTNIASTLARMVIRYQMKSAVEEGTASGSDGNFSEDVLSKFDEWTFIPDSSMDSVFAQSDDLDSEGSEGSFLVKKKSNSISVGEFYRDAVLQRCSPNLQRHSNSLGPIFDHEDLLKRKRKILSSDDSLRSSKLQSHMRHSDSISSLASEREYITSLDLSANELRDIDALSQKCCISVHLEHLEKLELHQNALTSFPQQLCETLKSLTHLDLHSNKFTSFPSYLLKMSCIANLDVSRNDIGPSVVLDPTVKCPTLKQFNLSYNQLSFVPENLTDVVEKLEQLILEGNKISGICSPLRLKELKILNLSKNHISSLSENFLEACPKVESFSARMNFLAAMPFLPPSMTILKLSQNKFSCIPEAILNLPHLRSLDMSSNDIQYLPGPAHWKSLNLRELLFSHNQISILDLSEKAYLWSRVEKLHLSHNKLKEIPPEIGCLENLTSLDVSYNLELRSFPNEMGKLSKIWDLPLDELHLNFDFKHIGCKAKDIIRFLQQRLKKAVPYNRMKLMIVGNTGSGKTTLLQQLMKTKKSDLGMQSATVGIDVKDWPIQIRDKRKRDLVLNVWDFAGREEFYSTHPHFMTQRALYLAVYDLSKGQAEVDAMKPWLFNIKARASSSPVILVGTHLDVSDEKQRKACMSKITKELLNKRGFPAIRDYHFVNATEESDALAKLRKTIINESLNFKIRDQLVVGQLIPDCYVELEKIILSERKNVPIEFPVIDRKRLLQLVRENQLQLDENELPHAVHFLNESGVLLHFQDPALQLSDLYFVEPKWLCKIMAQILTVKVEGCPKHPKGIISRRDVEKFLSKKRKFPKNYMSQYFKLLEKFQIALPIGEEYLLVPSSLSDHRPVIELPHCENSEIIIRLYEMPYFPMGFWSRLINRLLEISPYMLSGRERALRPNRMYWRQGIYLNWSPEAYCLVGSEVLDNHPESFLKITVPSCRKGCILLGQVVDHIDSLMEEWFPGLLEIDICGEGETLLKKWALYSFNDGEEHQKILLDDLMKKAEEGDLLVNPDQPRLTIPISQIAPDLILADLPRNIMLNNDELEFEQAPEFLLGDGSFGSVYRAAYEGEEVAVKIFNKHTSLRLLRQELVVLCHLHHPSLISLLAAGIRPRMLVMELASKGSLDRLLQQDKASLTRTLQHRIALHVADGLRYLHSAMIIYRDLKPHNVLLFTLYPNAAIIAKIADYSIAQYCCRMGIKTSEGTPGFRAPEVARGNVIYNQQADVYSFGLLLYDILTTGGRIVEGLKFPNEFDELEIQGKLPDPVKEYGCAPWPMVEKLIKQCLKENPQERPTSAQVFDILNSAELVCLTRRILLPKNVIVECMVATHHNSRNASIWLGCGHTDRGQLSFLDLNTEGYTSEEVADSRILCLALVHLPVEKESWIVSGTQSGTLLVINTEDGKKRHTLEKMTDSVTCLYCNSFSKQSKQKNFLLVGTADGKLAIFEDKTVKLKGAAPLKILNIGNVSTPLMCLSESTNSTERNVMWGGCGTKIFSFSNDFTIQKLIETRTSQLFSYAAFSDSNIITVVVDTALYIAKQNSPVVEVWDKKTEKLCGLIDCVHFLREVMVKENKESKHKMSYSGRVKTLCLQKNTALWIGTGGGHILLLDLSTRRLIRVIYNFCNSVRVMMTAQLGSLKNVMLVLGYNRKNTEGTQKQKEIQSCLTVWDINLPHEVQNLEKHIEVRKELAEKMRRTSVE

IC50	SMILES
2.29 nM	N#CC1(c2ccc3cnc(NC(=O)C4CC4)cc3c2)CC12CC2 (single isomer, unassigned) [Ex-18.1, N-(6-(1-cyanospiro[2.2]pentan-1-yl)isoquinolin-3-yl)cyclopropanecarboxamide]
5.37 nM	CC1CC1(C#N)c1ccc2cnc(NC(=O)C3CC3)cc2c1 (single isomer, unassigned) [Ex-18.8, (R or S)-N-(6-(1-cyano-2-methylcyclopropyl)isoquinolin-3-yl)cyclopropanecarboxamide]
0.0813 nM	Cn1ncc(C2CC2C(=O)Nc2cc3cc(C4CCN(C5(C)COCC5O)CC4)c(Cl)cc3cn2)n1 (racemic) [Ex-20.2, (1R,2R and 1S,2S)-N-(7-chloro-6-(1-(4-hydroxy-3-methyltetrahydrofuran-3-yl)piperidin-4-yl)isoquinolin-3-yl)-2-(2-methyl-2H-1,2,3-triazol-4-yl)cyclopropane-1-carboxamide]
3.09 nM	Cn1cc(C(=O)Nc2cc3cc(C4(C#N)CC45CC5)ccc3cn2)cn1 (single isomer, unassigned) [Ex-18.16, (R or S)-N-(6-(1-cyanospiro[2.2]pentan-1-yl)isoquinolin-3-yl)-1-methyl-1H-pyrazole-4-carboxamide]
58.9 nM	CCC1C(C(=O)Nc2cc3cc(C4CCN(C5(C)COCC5F)CC4)c(C)cc3cn2)C1c1cnn(C)c1 (single isomer, unassigned) [Ex-15.15, 2-ethyl-N-(6-(1-(4-fluoro-3-methyltetrahydrofuran-3-yl)piperidin-4-yl)-7-methylisoquinolin-3-yl)-3-(1-methyl-1H-pyrazol-4-yl)cyclopropane-1-carboxamide]
0.0813 nM	Cc1cc2cnc(NC(=O)C3C(C)C3c3cnn(C)c3)cc2cc1C1CCN(C2(C)COCC2F)CC1 (single isomer, unassigned) [Ex-16.7, N-(6-(1-(4-fluoro-3-methyltetrahydrofuran-3-yl)piperidin-4-yl)-7-methylisoquinolin-3-yl)-2-methyl-3-(1-methyl-1H-pyrazol-4-yl)cyclopropane-1-carboxamide]
129 nM	CC(CC#N)c1cc2cc(NC(=O)C3CC3c3ccccn3)ncc2cc1Cl (single isomer, unassigned) [Ex-9.22, N-(7-chloro-6-(1-cyanopropan-2-yl)isoquinolin-3-yl)-2-(pyridin-2-yl)cyclopropane-1-carboxamide]
9.12 nM	CC1(N2CCC(c3cc4cc(NC(=O)C56CC(C5)C6)ncc4cc3Cl)CC2)COC1 [Ex-7.7, N-(7-chloro-6-(1-(3-methyloxetan-3-yl)piperidin-4-yl)isoquinolin-3-yl)bicyclo[1.1.1]pentane-1-carboxamide]
5.75 nM	CC1CC1C(=O)Nc1cc2cc(C3CCN(C4COC4)CC3)c(Cl)cc2cn1 (single isomer, unassigned) [Ex-9.4, N-(7-chloro-6-(1-(oxetan-3-yl)piperidin-4-yl)isoquinolin-3-yl)-2-methylcyclopropane-1-carboxamide]
1.82 nM	CCC1C(C(=O)Nc2cc3cc(C(C)CC#N)c(Cl)cc3cn2)C1c1cnn(C)c1 (single isomer, unassigned) [Ex-9.16, N-(7-chloro-6-(1-cyanopropan-2-yl)isoquinolin-3-yl)-2-ethyl-3-(1-methyl-1H-pyrazol-4-yl)cyclopropane-1-carboxamide]
0.1 nM	O=C(Nc1cc2cc(C3CCN(C4COCC4O)CC3)c(Cl)cc2cn1)C1CC12CCOC2 (single isomer, unassigned) [Ex-8.5, N-(7-chloro-6-(1-(4-hydroxytetrahydrofuran-3-yl)piperidin-4-yl)isoquinolin-3-yl)-5-oxaspiro[2.4]heptane-1-carboxamide]
0.186 nM	CC1(N2CCC(c3cc4cc(NC(=O)C5CC56CCOCC6)ncc4cc3Cl)C(F)C2)COCC1O (single isomer, unassigned) [Ex-14.4, N-(7-chloro-6-(3-fluoro-1-(4-hydroxy-3-methyltetrahydrofuran-3-yl)piperidin-4-yl)isoquinolin-3-yl)-6-oxaspiro[2.5]octane-1-carboxamide]

Continued, compound first:

SMILES	IC50
CC1(N2CCC(c3cc4cc(NC(=O)C5CC5C5CCOCC5)ncc4cc3Cl)CC2)COCC1O (single isomer, unassigned) [Ex-4.67, N-(7-chloro-6-(1-(4-hydroxy-3-methyltetrahydrofuran-3-yl)piperidin-4-yl)isoquinolin-3-yl)-2-(tetrahydro-2H-pyran-4-yl)cyclopropane-1-carboxamide]	0.0813 nM
CC1(N2CCC(c3cc4cc(NC(=O)[C@H]5CCCO5)ncc4cc3Cl)CC2)COCC1O (stereo partly shown) [Ex-3.2]	1.15 nM
CCOC1CC1C(=O)Nc1cc2cc(C3CCN(C4(C)COCC4O)CC3)c(Cl)cc2cn1 (stereo not shown) [Ex-2.10]	1.15 nM
CC1(N2CCC(c3cc4cc(NC(=O)C5CC5c5cccnc5)ncc4cc3Cl)CC2)COCC1O (single isomer, unassigned) [Ex-4.41, N-(7-chloro-6-(1-(4-hydroxy-3-methyltetrahydrofuran-3-yl)piperidin-4-yl)isoquinolin-3-yl)-2-(pyridin-3-yl)cyclopropane-1-carboxamide]	45.7 nM
CC1(N2CCC(c3cc4cc(NC(=O)C5C6CCCOC65)ncc4cc3Cl)CC2)COCC1O (single isomer, unassigned) [Ex-4.11, N-(7-chloro-6-(1-(4-hydroxy-3-methyltetrahydrofuran-3-yl)piperidin-4-yl)isoquinolin-3-yl)-2-oxabicyclo[4.1.0]heptane-7-carboxamide]	0.363 nM
CC1(C)CC(C(=O)Nc2cc3cc(C4CCN(C5(C)COCC5O)CC4)c(Cl)cc3cn2)CO1 (stereo not shown) [Ex-2.30]	0.126 nM
CC1(C)CCC(C(=O)Nc2cc3cc(C4CCC(N5CCC(F)C5)CC4)c(Cl)cc3cn2)CO1 (single isomer, unassigned) [Ex-5.17, N-(7-chloro-6-(4-(3-fluoropyrrolidin-1-yl)cyclohexyl)isoquinolin-3-yl)-6,6-dimethyltetrahydro-2H-pyran-3-carboxamide]	5.62 nM
CC1(N2CCC(c3cc4cc(NC(=O)C5CC5c5cccs5)ncc4cc3Cl)CC2)COCC1O (single isomer, unassigned) [Ex-4.59, N-(7-chloro-6-(1-(4-hydroxy-3-methyltetrahydrofuran-3-yl)piperidin-4-yl)isoquinolin-3-yl)-2-(thiophen-2-yl)cyclopropane-1-carboxamide]	129 nM
Cn1ncc(C2CC2C(=O)Nc2cc3cc(C4(C#N)CC45CC5)ccc3cn2)c1C(F)(F)F (stereo not shown) [Ex-2.48]	324 nM
CC1C(C(=O)Nc2cc3cc(C4CCN(C5(C)COCC5F)CC4)c(Cl)cc3cn2)C1c1cnn(C)c1 (stereo not shown) [Ex-2.80]	0.0813 nM
CC1(C)CC(C(=O)Nc2cc3cc(C4CCN(C5(C)CCOC5)CC4)c(Cl)cc3cn2)CCO1 (single isomer, unassigned) [Ex-6.47, N-(7-chloro-6-(1-(3-methyltetrahydrofuran-3-yl)piperidin-4-yl)isoquinolin-3-yl)-2,2-dimethyltetrahydro-2H-pyran-4-carboxamide]	0.724 nM
CC1(N2CCC(c3cc4cc(NC(=O)C5CC5C#N)ncc4cc3Cl)CC2)COCC1O (stereo not shown) [Ex-2.32]	0.0813 nM
CC1(N2CCC(c3cc4cc(NC(=O)CC5CCOCC5)ncc4cc3Cl)CC2)COCC1O (single isomer, unassigned) [Ex-1.39, N-(7-chloro-6-(1-((3R,4R or 3S,4S)-4-hydroxy-3-methyltetrahydrofuran-3-yl)piperidin-4-yl)isoquinolin-3-yl)-2-(tetrahydro-2H-pyran-4-yl)acetamide]	0.398 nM
